In patent US11529319B2, “Methods and compositions for treating neurological conditions” (priority 2017, dated 2022):
Entries after “also recorded” stand apart in the source; their conditions may differ.

Key:
[1] = system: hippocampal slices of Tsc2+/- mice; assay: CA1 LTP in acute hippocampal slices by multielectrode array; type: cell-based, mouse; details: 1-2 μM, 4-hour treatment; monitored 55-65 min after induction; vs vehicle
Description: Long-term potentiation (LTP), a form of synaptic plasticity elicited in response to excitatory input and thought to represent an electrical correlate of learning and memory in the hippocampus, was examined. Field recordings in the CA1 region of hippocampal slices were used to investigate the effects of Tsc2 mutation on this form of synaptic plasticity. For this purpose, acute hippocampal slices from one-month-old mice were prepared and field recordings in a microelectrode array (MEA) chamber perfused with artificial cerebrospinal fluid (ACSF) were performed. fEPSPs (field excitatory postsynaptic potentials) were recorded in the CA1 region after evoking LTP via stimulation of the Schaffer collaterals (four repetitions of 100 Hz pulses for one second each). The initial slope of the fEPSP was analyzed to assess LTP. However, with a stronger induction protocol as used here, we observed a decrease in LTP, monitored 60 min after induction.

[2] = system: p38 MAPK/MAPKAPK2/TSC2/mTORC1/S6K1 cascade; assay: Western blots of eNMDAR-triggered signaling; type: cell-based; details: compared with Memantine
Description: This experiment was replicated 4 times with similar results and quantified in FIG. 20C.

Tsc2+/- mice = assay: Quantitative confocal immunohistochemistry of synaptophysin (SY38) in hippocampus; type: in vivo, mouse; details: i.p. loading 92 μmol/kg then 4.6 μmol/kg twice daily, two and a half days
Description: To determine the effects of […] antagonists on the brain histology of Tsc2^+/- mice, quantitative confocal immunohistochemistry was used to analyze coronal brain slices from 3-month-old wild-type (WT) and Tsc2^+/- mice that had been treated for two and a half days with vehicle, memantine or NitroSynapsin. Tsc2+/- mice on the C57Bl/6J background received via the intraperitoneal route either vehicle or a loading dose of 92 μmol/kg of memantine or NitroSynapsin, followed by 4.6 μmol/kg of drug twice daily for two-and-a-half-days, with the last dose 3 hours prior to the behavioral training session (for a total of five drug injections). This dosing regimen yields an effective concentration of drug at NMDARs in the brain of 1-10 μM.

Mef2c-het mice [3] = assay: Open field test (locomotor activity); type: in vivo, mouse; details: chronic treatment, 30-minute test
Description: (§1) Mef2c heterozygous knockout (Mef2c-het) mice were created by crossing mice carrying the conventional exon 2-deleted allele of Mef2c (Mef2c^Δ2) with their WT littermates. All procedures for maintaining and using these mice were approved by the Institutional Animal Care and Use Committee (IACUC) at the Sanford Burnham Prebys Medical Discovery Institute. In this study, only male mice were used for the behavioral assays to insure uniformity (either with or without drug treatment). Chronic treatment with memantine, NitroSynapsin (both at 4.6 μmol/kg body weight) or vehicle (PBS) was administered via i.p. injection, twice a day for at least 3 months, starting at ˜2.5 weeks of age. This age was chosen because mice are still juveniles and thus treatment could begin in human at an equivalent stage.
Locomotor activity was measured in polycarbonate cages (42×22×20 cm) placed into frames (25.5×47 cm) mounted with two levels of photocell beams at 2 and 7 cm above the bottom of the cage (San Diego Instruments, San Diego, Calif.). These two sets of beams allowed recording of both horizontal (locomotion) and vertical (rearing) behavior. A thin layer of bedding material was applied to the bottom of the cage. Mice were tested for 30 or 120 min depending on the exact test.

Mef2c-het mice [4] = assay: Motor behavioral tests and paw clasping; type: in vivo, mouse; details: 3-month treatment
Description: as §1, with “This age was chosen because mice are still juveniles and thus treatment could begin in human at an equivalent stage.” left out
Balance was measured by the latency to fall off the elevated (40 cm) horizontal rod (50 cm long) in four 20 sec trials. […] Traction capacity was measured over three 5 s trials as the ability of the animal to raise the hind limbs while remaining suspended by the forepaws grasped around an elevated horizontal bar (2 mm diameter). […] Muscle Strength was determined by one trial of 60 s in which the mice were placed in the middle of the horizontal bar in an upside-down position and the latency until falling down was measured. […] The latency to turn downward and the total time to descend to the floor over 3 trials was recorded.

## CCC12CC3(N)CC(CC)(C1)CC(O[N+](=O)[O-])(C3)C2 [NitroSynapsin]
[1]
  CA1 LTP in Tsc2+/- hippocampal slices: all improved; also recorded: improved LTP; also recorded: able to reverse deficits in synaptic plasticity; also recorded: improvement of LTP
[2]
  eNMDAR-triggered signaling that inactivates TSC2 (p38 MAPK-TSC-Rheb-mTORC1-S6K1 pathway): correction of activity
[2]; listed as NitroMemantine
  eNMDAR-triggered signaling that inactivates TSC2 (p38 MAPK-TSC-Rheb-mTORC1-S6K1 pathway): to a greater degree than Memantine
Tsc2+/- mice
  synaptophysin (SY38) staining in hippocampus (% area): all improved; also recorded: significantly more staining; also recorded: reversed the synaptic loss; also recorded: raised the synaptic signal to WT levels
Mef2c-het mice [3]
  open field center time / center activity: rescued by chronic treatment with NitroSynapsin; also recorded: rescued by treatment with N
Mef2c-het mice [4]
  paw clasping: did not improve the paw clasping phenotype; also recorded: not rescued
